From ChEMBL document CHEMBL1130058, “Structure-cytoprotective activity relationship of simple molecules containing an alpha,beta-unsaturated carbonyl system” (1997) come the findings set out here.

The species entered for this assay is Rattus norvegicus. Put plainly: Gastric cytoprotective activity in male wistar rat. In kind it is functional.
The compound `CC1=CC(=O)CC1` gave a Cytoprotective effect of 4.3.

As for `CC1CC(O)=CC(=O)O1` (centres undefined), the Cytoprotective effect is recorded as 4.66.

Regarding `O=C(O)/C=C/c1ccoc1`, the Cytoprotective effect was 4.6.

Compound `C/C=C(/C)C(=O)OC` returned a Cytoprotective effect of 5.

As for `COC(=O)C=C(C)C`, the Cytoprotective effect is reported as 4.5.

On to `C/C=C(\C)C(=O)OCC`, for which the Cytoprotective effect was 4.8.

Regarding `COc1cc2c(c3oc(=O)ccc13)OCO2`, the Cytoprotective effect came to 4.2.

`C=C(C=O)C1CCC(C)(O)CC1` (centres undefined) displayed a Cytoprotective effect of 0.7.

`CCOC(=O)CC(=O)c1ccoc1` showed a Cytoprotective effect of 4.75.

Take `C=C(C)C(=O)OC`: the Cytoprotective effect came out at 4.8.

In the case of `O=C1C=CCC1`, the Cytoprotective effect is reported as 1.3.

`C/C=C(\C)C(=O)O` displayed a Cytoprotective effect of 5.

As to `C=C(C=O)C1CC=C(C)CC1` (centres undefined), the Cytoprotective effect turned out to be 0.9.

As for `CC1=CC(=O)C(=C(C)C)CC1`, the Cytoprotective effect is 4.3.

Take `O=C1C=CCCO1`: the Cytoprotective effect turned out to be 0.55.

Compound `C/C=C(\C)C(=O)OC` showed a Cytoprotective effect of 5.

As for `C/C=C(/C)C(=O)O`, the Cytoprotective effect worked out at 3.5.

On to `C/C=C(\C)C=O` [2-methyl-(E)-2-butenal], for which the Cytoprotective effect is 4.6.

Compound `O=c1cc(O)c2ccccc2o1` [4-HYDROXYCOUMARINS] displayed a Cytoprotective effect of 4.62.

The compound `C=CC(=O)OCC` [ACRYLIC ACID ETHYL ESTER] had a Cytoprotective effect of 4.3.

Compound `C=CC#N` [ACRYLONITRILE] yielded a Cytoprotective effect of 3.5.

Take `O=C/C=C/c1ccccc1` [CINNAMALDEHYDE]: the Cytoprotective effect was determined as 4.5.

Compound `O=C(O)/C=C/c1ccccc1` [CINNAMIC ACID] returned a Cytoprotective effect of 5.

Take `O=c1ccc2ccccc2o1` [COUMARIN]: the Cytoprotective effect was 4.7.

Regarding `COC(=O)/C=C/c1ccccc1` [E-METHYL CINNAMATE], the Cytoprotective effect is 2.9.

The compound `COc1cc2ccc(=O)oc2c(O)c1O` [FRAXETIN] yielded a Cytoprotective effect of 4.75.

As for `C#CC(=O)OCC` [PROPYNOIC ACID ETHYL ESTER], the Cytoprotective effect is 0.43.

`C=C1CCOC1=O` [TULIPALINE A] gave a Cytoprotective effect of 0.25.

Regarding `O=c1ccc2ccc(O)cc2o1` [UMBELLIFERONE], the Cytoprotective effect is on record as 3.8.
